The source of these data is US7300929B2, “Mediators of hedgehog signaling pathways, compositions and uses related thereto” (Curis, Inc., priority 1999, dated 2007).

Experiment [1] deals with Patched pathway in ptc-null cells. In words: Ptc-null assay (gli-1 mRNA by RT-PCR and real-time PCR). It is filed as cell-based, mouse. The settings on record: 3 days, 5 μM. Here is the method: […] Total ribonucleic acid (RNA) was isolated from the cells and used for reverse transcriptase-polymerase chain reaction (RT-PCR). […] The gli-1 and actin mRNA samples were then loaded on 1.5% agarose gel and were detected by staining with ethidium bromide. The same samples were analyzed by the quantitative real-time polymerase chain reaction method to quantify the levels of gli-1 mRNA.

For experiment [2], the system named is Patched pathway / ultraviolet radiation-induced BCC tumors. Briefly: Adult BCC mouse skin punch assay. The class given is cell-based. The settings on record: positive control, 6 days, vs vehicle. Here is the method: Ptc heterozygous transgenic mice were irradiated 3 times weekly for 6 months, during which time many small, and often microscopic, BCC tumors developed. Four-mm diameter skin punch explants, presumably containing BCC structures, were cultured for 6 days in the presence of vehicle, the positive control (jervine), or 5 μM D. At the end of the experiment, the explants were analyzed by X-gal staining to detect the level of Patched pathway activity, by histology to determine the effect of treatment on the morphology of ultraviolet radiation-induced BCCs, and by quantifying the level of gli-1 mRNA expression to characterize the extent of pathway inhibition.

The structures appear in SMILES notation.

As for `CC1=C2C(=O)[C@H]3[C@@H](CC=C4C[C@@H](O)CC[C@@]43C)[C@@H]2CC[C@]12O[C@@H]1C[C@H](C)CN[C@H]1[C@H]2C` [jervine], in experiment [1], the “gli-1 mRNA levels (quantitative real-time PCR)” value is “downregulated”. The “expression of gli-1 mRNA (RT-PCR, agarose gel)” value in experiment [1] (vs vehicle) is on record as “significantly decreased”. For the same compound, the “number and size of BCC structures (X-gal staining)” value in experiment [2] is on record as “greatly decreased”.
